According to US8563713B2, “Antibodies specific to carbamazepine” (priority 2011, dated 2013):

test system: antibody specific to carbamazepine; assay: Interference from other drugs in the carbamazepine ELISA assay; format: binding, rabbit; details: chemical tested at 10.0 μg/ml; procedures of Example 4 (competitive ELISA); tested in duplicate
Description: Production of the antibodies of the present disclosure was performed with conventional methods. In brief, the immunogen as prepared in Example 2 was diluted to 1.0 mg/ml in phosphate buffered saline (PBS). 1.0 ml of the immunogen solution was injected into rabbits with complete Freunds adjuvant. After 2-3 weeks, the animal was injected with 1.0 ml of the same immunogen solution with incomplete Freunds adjuvant. The same injection was repeated every other week until acceptable titer was obtained.
The Carbamazepine ELISA was developed with the antibody generated from Example 3. This assay is a competitive micro-immunoassay for determination of carbamazepine in a fluid sample. Carbamazepine in the fluid sample and carbamazepine derivative linked with the enzyme (HRP)-conjugate compete for the finite sites of the antibody coated on the solid surface of the microwell. If little or no carbamazepine is present in the fluid sample, more enzyme labeled carbamazepine derivative will bind to the antibody on the solid surface. Conversely, if a large or a significant amount of carbamazepine is present in the fluid sample, less enzyme labeled carbamazepine derivative will bind to the antibody, producing less color signal. The absorbance produced is inversely proportional to the amount of carbamazepine in the fluid sample.
Interference from other drugs was tested using 30 frequently used chemicals and medicines, at concentrations of 10.0 μg/ml.
The samples were tested in duplicate, following the procedures used in Example 4. All 30 samples produced a negative test result. Thus, the immunoassay of the present disclosure is specific to carbamazepine.

Row | Compound | Equivalent Carbamazepine Conc.
1 | CN[C@@H](C)[C@H](O)c1ccccc1 [(L)-Ephedrine] | <0.1 µg/mL
2 | CN1C(=O)CC[C@H]1c1cccnc1 [(−)-Cotinine] | <0.1 µg/mL
3 | CC(=O)Oc1ccccc1C(=O)O [Acetylsalicylic Acid] | <0.1 µg/mL
4 | CCC1(CCC(C)C)C(=O)NC(=O)NC1=O [Amobarbital] | <0.1 µg/mL
5 | CC1(C)S[C@@H]2[C@H](NC(=O)[C@H](N)c3ccccc3)C(=O)N2[C@H]1C(=O)O [Ampicillin] | <0.1 µg/mL
6 | Cn1c(=O)c2c(ncn2C)n(C)c1=O [Caffeine] | <0.1 µg/mL
7 | CN(C)CCCN1c2ccccc2Sc2ccc(Cl)cc21 [Chlorpromazine] | <0.1 µg/mL
8 | O=C(O)C1N=C(c2ccccc2)c2cc(Cl)ccc2NC1=O (centres unmarked) [Clorazepate] | <0.1 µg/mL
9 | CN1C(=O)CN=C(c2ccccc2)c2cc(Cl)ccc21 [Diazepam] | <0.1 µg/mL
10 | COC(=O)[C@@H]1[C@H]2CC[C@@H](C[C@@H]1O)N2C [Ecgonine Methyl Ester] | <0.1 µg/mL
11 | CC(C(=O)O)c1cccc(Oc2ccccc2)c1 (centres unmarked) [Fenoprofen] | <0.1 µg/mL
12 | Cc1ccc(C)c(OCCCC(C)(C)C(=O)O)c1 [Gemfibrozil] | <0.1 µg/mL
13 | O=C(O)c1cc(O)ccc1O [Gentisic Acid] | <0.1 µg/mL
14 | COc1ccc2c3c1O[C@H]1C(=O)CC[C@H]4[C@@H](C2)N(C)CC[C@]314 [Hydrocodone] | <0.1 µg/mL
15 | CC(C)Cc1ccc(C(C)C(=O)O)cc1 (centres unmarked) [Ibuprofen] | <0.1 µg/mL
16 | CN(C)CCCN1c2ccccc2CCc2ccccc21 [Imipramine] | <0.1 µg/mL
17 | CCN(CC)CC(=O)Nc1c(C)cccc1C [Lidocaine] | <0.1 µg/mL
18 | COc1ccc2cc([C@H](C)C(=O)O)ccc2c1 [Naproxen] | <0.1 µg/mL
19 | NC(=O)c1cccnc1 [Niacinamide] | <0.1 µg/mL
20 | CNC[C@H](O)c1cccc(O)c1 [Phenylephrine] | <0.1 µg/mL
21 | CC(N)C(O)c1ccccc1 (centres unmarked) [Phenylpropanolamine] | <0.1 µg/mL
22 | CCN(CC)CCNC(=O)c1ccc(N)cc1 [Procainamide] | <0.1 µg/mL
23 | CCN(CC)CCOC(=O)c1ccc(N)cc1 [Procaine] | <0.1 µg/mL
24 | C=C[C@H]1C[N@@]2CC[C@H]1C[C@@H]2[C@@H](O)c1ccnc2ccc(OC)cc12 [Quinidine] | <0.1 µg/mL
25 | Cc1cc(CC(=O)O)n(C)c1C(=O)c1ccc(Cl)cc1 [Zomepirac] | <0.1 µg/mL
26 | NCCc1ccccc1 [beta-Phenylethylamine] | <0.1 µg/mL
27 | CN[C@@H](C)Cc1ccccc1 [d-Methamphetamine] | <0.1 µg/mL
28 | Ecgonine | <0.1 µg/mL
29 | Penicillin | <0.1 µg/mL
